In patent US20240182491A1, “SUBSTITUTED FUSED BICYCLIC MACROCYCLIC COMPOUNDS AND RELATED METHODS OF TREATMENT” (Alkermes, Inc., priority 2021, published 2024):

What follows are compounds tested against T1, human orexin-2 receptor (OX2R) (Homo sapiens, UniProt O43614) (assay: Human OX2R IP1 assay). Conditions: T-Rex CHO cells stably overexpressing human OX2R; inositol monophosphate (IP1) accumulation, 1 hr at 37 degrees C; mean EC50.
T1 construct: expressed in transfected cells
T1 sequence (O43614 1-444): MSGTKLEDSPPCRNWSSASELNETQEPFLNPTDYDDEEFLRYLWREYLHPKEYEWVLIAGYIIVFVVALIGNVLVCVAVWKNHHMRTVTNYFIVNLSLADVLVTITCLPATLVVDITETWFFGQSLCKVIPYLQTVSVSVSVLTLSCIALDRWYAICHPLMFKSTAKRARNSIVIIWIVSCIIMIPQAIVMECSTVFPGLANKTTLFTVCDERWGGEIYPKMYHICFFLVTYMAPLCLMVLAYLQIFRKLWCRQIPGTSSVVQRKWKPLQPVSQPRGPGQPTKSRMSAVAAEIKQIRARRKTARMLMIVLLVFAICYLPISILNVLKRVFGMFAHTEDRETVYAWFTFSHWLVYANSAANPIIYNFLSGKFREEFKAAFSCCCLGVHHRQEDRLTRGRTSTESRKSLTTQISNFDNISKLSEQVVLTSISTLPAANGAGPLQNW
Type: cell-based
Procedure: T-Rex CHO cells stably overexpressing the human orexin-2 receptor (OX2R) were induced overnight with 1 μg/mL of doxycycline in a T225 flask. 24 hours post induction, cells were lifted with accutase and plated into a 384-well proxy plate at 30,000 cells/well. Cells were then treated with different test compounds in 1× stimulation buffer containing 10 mM Hepes, 1 mM CaCl2), 0.5 mM MgCl2, 4.2 mM KCl, 146 mM NaCl, 5.5 mM glucose, and 50 mM LiCl, pH 7.4, for 1 hr at 37 degrees C. Following incubation, the reaction was terminated by the addition of detection mix, which is composed of IP1-d2 and anti-IP1-cryptate diluted in lysis buffer as well as 1× stimulation buffer. The plates were allowed to incubate for 1 hour at room temperature and were then read in the EnVision® multimode plate reader, measuring inositol phosphate levels.
Cisbio IP1 is a cell-based functional assay quantifying the accumulation of inositol monophosphate (IP), a metabolite released as a result of orexin 2 receptor activation through the phospholipase C-Gq signaling pathway. This is a competitive immunoassay in which the IP1 produced by the cells upon receptor activation competes with the IP1 analog coupled to the d2 fluorophore (acceptor) for binding to an anti-IP1 monoclonal antibody labeled with Eu cryptate (donor). The measured HTRF-FRET based signal is inversely proportional to the IP1 concentration produced.
The EC50 values reported in Table 2 were obtained according to the human OX2R IP1 assay described above. Data are the mean EC50 values ±S.E.M.

`O=C1COc2cc3[nH]ncc3cc2C2CCC(CC2)OCC2[C@@H](NS(=O)(=O)C(F)(F)F)CCN12` (stereo partly drawn) [Compound 5] and `CS(=O)(=O)N[C@H]1CCN2C(=O)COc3cc4[nH]ncc4cc3[C@H]3CC[C@H](CC3)OC[C@@H]12` [Compound 6] fall in the same range of EC50: 100 to 1000 nM for the first, 100 to 1000 nM for the second.

In the case of `CS(=O)(=O)N[C@H]1CCCN2C(=O)COc3cc4[nH]ncc4cc3[C@H]3CC[C@H](CC3)OC[C@@H]12` [Compound 10], the EC50 is reported as under 100 nM.
